Data as given in patent publication US8354441B2, “Oxazoline derivatives” (Hoffmann-La Roche Inc., priority 2009, dated 2013).

What was measured:
mouse TAAR1 = molecular target: T1, mouse TAAR1 (Mus musculus, UniProt Q923Y8); assay: TAAR1 radioligand binding with [3H]-rac-2-(1,2,3,4-tetrahydro-1-naphthyl)-2-imidazoline, membranes of stably transfected HEK293 cells; settings: first value of the cell, read-out: Ki (μM) mouse/rat: mouse
T1 construct: expressed in transfected cells; host or cells: HEK293 (ATCC # CRL-1573), stably transfected with pIRESneo2 expression plasmid
Procedure, shortened: (§1)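 Competition binding: competitors spanning 10 pM–30 μM displace 60 nM [3H]-rac-2-(1,2,3,4-tetrahydro-1-naphthyl)-2-imidazoline from stably transfected HEK293 membranes (mouse or rat receptor), 30 min, 4 °C, pH 7.0 buffer with Mg2+/Ca2+. Bound label counted after GF/C filtration; 10 μM unlabelled ligand defines non-specific binding.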

rat TAAR1 = molecular target: T2, rat TAAR1 (Rattus norvegicus, UniProt Q923Y9); assay: as above; settings: second value of the cell, read-out: Ki (μM) mouse/rat: rat
T2 construct: expressed in transfected cells; host or cells: HEK293 (ATCC # CRL-1573), stably transfected with pIRESneo2 expression plasmid
Procedure, shortened: as §1

T1 sequence (Q923Y8 whole entry): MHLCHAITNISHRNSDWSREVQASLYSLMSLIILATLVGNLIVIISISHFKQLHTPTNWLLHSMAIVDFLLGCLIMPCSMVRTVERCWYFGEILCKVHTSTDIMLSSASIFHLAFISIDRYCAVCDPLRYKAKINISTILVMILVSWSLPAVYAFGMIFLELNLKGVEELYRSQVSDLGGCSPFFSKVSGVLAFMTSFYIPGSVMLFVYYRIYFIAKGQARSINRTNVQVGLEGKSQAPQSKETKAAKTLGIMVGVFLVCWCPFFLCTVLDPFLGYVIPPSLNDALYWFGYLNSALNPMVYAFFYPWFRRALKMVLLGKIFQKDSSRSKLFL
T2 sequence (Q923Y9 whole entry): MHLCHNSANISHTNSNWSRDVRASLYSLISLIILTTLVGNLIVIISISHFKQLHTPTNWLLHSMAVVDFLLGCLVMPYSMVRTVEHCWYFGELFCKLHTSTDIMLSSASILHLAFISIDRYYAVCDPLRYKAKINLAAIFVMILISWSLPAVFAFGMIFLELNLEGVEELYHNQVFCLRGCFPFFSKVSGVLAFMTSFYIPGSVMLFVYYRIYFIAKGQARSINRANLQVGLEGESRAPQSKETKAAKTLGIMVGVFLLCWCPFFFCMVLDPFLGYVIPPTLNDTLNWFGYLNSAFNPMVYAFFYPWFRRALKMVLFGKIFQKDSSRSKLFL

Structure (SMILES)	Ki (mouse TAAR1) [µM]	Ki (rat TAAR1) [µM]
NC1=N[C@@H](CCc2ccc(NC(=O)c3cccc(F)n3)cc2)CO1 [Example 88, 6-Fluoro-pyridine-2-carboxylic acid {4-[2-((S)-2-amino-4,5-dihydro-oxazol-4-yl)-ethyl]-phenyl}-amide]	0.0097	0.0014
CCCc1ccc(C(=O)Nc2ccc(CC[C@H]3COC(N)=N3)cc2)cc1 [Example 61, N-{4-[2-((S)-2-Amino-4,5-dihydro-oxazol-4-yl)-ethyl]-phenyl}-4-propyl-benzamide]	0.0002	0.0007
NC1=N[C@@H](CCc2ccc(NC(=O)c3ncc(Cl)cn3)cc2)CO1 [Example 34, 5-Chloro-pyrimidine-2-carboxylic acid {4-[2-((S)-2-amino-4,5-dihydro-oxazol-4-yl)-ethyl]-phenyl}-amide]	0.0067	0.0035
NC1=NC(c2ccc(NC(=O)Nc3ccc(Cl)cc3)cc2)CO1 (racemic) [Example 1, (RS)-1-[4-(2-Amino-4,5-dihydro-oxazol-4-yl)-phenyl]-3-(4-chloro-phenyl)-urea]	0.0026	0.0005
NC1=N[C@@H](CCc2ccc(NC(=O)C3(c4ccc(Cl)cc4)CC3)cc2)CO1 [Example 53, 1-(4-Chloro-phenyl)-cyclopropanecarboxylic acid {4-[2-((S)-2-amino-4,5-dihydro-oxazol-4-yl)-ethyl]-phenyl}-amide]	0.0009	0.0016
CC1(C(=O)Nc2ccc(CC[C@H]3COC(N)=N3)cc2)CC1 [Example 41, 1-Methyl-cyclopropanecarboxylic acid {4-[2-((S)-2-amino-4,5-dihydro-oxazol-4-yl)-ethyl]-phenyl}-amide]	0.0091	0.0094
CC(C(=O)Nc1ccc(CC[C@H]2COC(N)=N2)cc1)c1cccc(OC(F)(F)F)c1 (stereo partly drawn) [Example 82, N-{4-[2-((S)-2-Amino-4,5-dihydro-oxazol-4-yl)-ethyl]-phenyl}-2-(3-trifluoromethoxy-phenyl)-propionamide]	0.0005	0.0017
NC1=N[C@@H](CCCc2ccc(NC(=O)c3ccc(Cl)cc3)cc2)CO1 [Example 8, N-{4-[3-((S)-2-Amino-4,5-dihydro-oxazol-4-yl)-propyl]-phenyl}-4-chloro-benzamide]	0.0034	0.0001
CC[C@@H](C[C@H]1COC(N)=N1)c1ccc(NC(=O)Nc2ccc(C(F)(F)F)cc2)cc1 [Example 13, 1-{4-[(S)-1-((S)-2-Amino-4,5-dihydro-oxazol-4-ylmethyl)-propyl]-phenyl}-3-(4-trifluoromethyl-phenyl)-urea]	0.0007	0.0023
COC(C(=O)Nc1ccc(CC[C@H]2COC(N)=N2)cc1)c1ccc(Cl)cc1 (stereo partly drawn) [Example 78, N-{4-[2-((S)-2-Amino-4,5-dihydro-oxazol-4-yl)-ethyl]-phenyl}-2-(4-chloro-phenyl)-2-methoxy-acetamide]	0.0048	0.0031
NC1=N[C@@H](CCc2ccc(NC(=O)c3ccc(-n4cccn4)nc3)cc2)CO1 [Example 85, N-{4-[2-((S)-2-Amino-4,5-dihydro-oxazol-4-yl)-ethyl]-phenyl}-6-pyrazol-1-yl-nicotinamide]	0.0012	0.0015
NC1=N[C@@H](CCc2ccc(NC(=O)Nc3ccc(Cl)c(Cl)c3)cc2)CO1 [Example 14, 1-{4-[2-((S)-2-Amino-4,5-dihydro-oxazol-4-yl)-ethyl]-phenyl}-3-(3,4-dichloro-phenyl)-urea]	0.0001	0.0001
NC1=N[C@@H](CCc2ccc(NC(=O)C3CC3)cc2)CO1 [Example 46, Cyclopropanecarboxylic acid {4-[2-((S)-2-amino-4,5-dihydro-oxazol-4-yl)-ethyl]-phenyl}-amide]	0.0042	0.0018
NC1=N[C@@H](CCc2ccc(NC(=O)C3CCC(F)(F)CC3)cc2)CO1 [Example 40, 4,4-Difluoro-cyclohexanecarboxylic acid {4-[2-((S)-2-amino-4,5-dihydro-oxazol-4-yl)-ethyl]-phenyl}-amide]	0.0036	0.0187
COc1ncc(C(=O)Nc2ccc(CC[C@H]3COC(N)=N3)cc2)cn1 [Example 83, 2-Methoxy-pyrimidine-5-carboxylic acid {4-[2-((S)-2-amino-4,5-dihydro-oxazol-4-yl)-ethyl]-phenyl}-amide]	0.0074	0.0052
NC1=N[C@@H](CCc2ccc(NC(=O)c3ccc(F)cn3)cc2)CO1 [Example 96, (S)-N-(4-(2-(2-amino-4,5-dihydrooxazol-4-yl)ethyl)phenyl)-5-fluoropicolinamide]	0.001	0.0006
NC1=N[C@@H](CCc2ccc(NS(=O)(=O)c3ccc(Cl)c(Cl)c3)cc2)CO1 [Example 76, N-{4-[2-((S)-2-Amino-4,5-dihydro-oxazol-4-yl)-ethyl]-phenyl}-3,4-dichloro-benzenesulfonamide]	0.009	0.0009
NC1=N[C@@H](CCc2ccc(NC(=O)Oc3ccc(F)cc3)cc2)CO1 [Example 148, {4-[2-((S)-2-Amino-4,5-dihydro-oxazol-4-yl)-ethyl]-phenyl}-carbamic acid 4-fluoro-phenyl ester]	0.0005	0.0006
NC1=N[C@@H](CCc2ccc(NC(=O)c3ccc(C(F)(F)F)cn3)cc2)CO1 [Example 54, 5-Trifluoromethyl-pyridine-2-carboxylic acid {4-[2-((S)-2-amino-4,5-dihydro-oxazol-4-yl)-ethyl]-phenyl}-amide]	0.0008	0.0019

Next, values leading:

Ki (mouse TAAR1) [µM]	Ki (rat TAAR1) [µM]	Structure (SMILES)
0.0018	0.0001	C#Cc1ccc(NC(=O)c2ccc(CC[C@H]3COC(N)=N3)cc2)cc1 [Example 145, (S)-4-(2-(2-amino-4,5-dihydrooxazol-4-yl)ethyl)-N-(4-ethynylphenyl)benzamide]
0.0006	0.0006	NC1=N[C@@H](CCc2ccc(NC(=O)c3cc(Cl)cc(Cl)n3)cc2)CO1 [Example 158, (S)-N-(4-(2-(2-Amino-4,5-dihydrooxazol-4-yl)ethyl)phenyl)-4,6-dichloropicolinamide]
0.0009	0.001	CCOc1ccc(C(=O)Nc2ccc(CC[C@H]3COC(N)=N3)cc2)nc1 [Example 153, (S)-N-(4-(2-(2-Amino-4,5-dihydrooxazol-4-yl)ethyl)phenyl)-5-ethoxypicolinamide]
0.0007	0.0004	Cc1cc(C(=O)Nc2ccc(CC[C@H]3COC(N)=N3)cc2)sc1C [Example 202, (S)-N-(4-(2-(2-Amino-4,5-dihydrooxazol-4-yl)ethyl)phenyl)-4,5-dimethylthiophene-2-carboxamide]
0.0019	0.0006	Cc1cc(C)nc(C(=O)Nc2ccc(CC[C@H]3COC(N)=N3)cc2)c1 [Example 157, (S)-N-(4-(2-(2-Amino-4,5-dihydrooxazol-4-yl)ethyl)phenyl)-4,6-dimethylpicolinamide]
0.001	0.0024	NC1=N[C@@H](CCc2ccc(NC(=O)c3cnc(C(F)(F)F)cn3)cc2)CO1 [Example 159, (S)-N-(4-(2-(2-Amino-4,5-dihydrooxazol-4-yl)ethyl)phenyl)-5-(trifluoromethyl)pyrazine-2-carboxamide]
0.0006	0.0011	NC1=N[C@@H](CCc2ccc(NC(=O)C(F)(F)c3ccc(Cl)c(Cl)c3)cc2)CO1 [Example 125, (S)-N-(4-(2-(2-Amino-4,5-dihydrooxazol-4-yl)ethyl)phenyl)-2-(3,4-dichlorophenyl)-2,2-difluoroacetamide]
0.0002	0.0002	COc1cc(Cl)ccc1C(=O)Nc1ccc(CC[C@H]2COC(N)=N2)cc1 [Example 138, (S)-N-(4-(2-(2-Amino-4,5-dihydrooxazol-4-yl)ethyl)phenyl)-4-chloro-2-methoxybenzamide]
0.0008	0.0009	NC1=N[C@@H](CCc2ccc(NC(=O)c3cc(Cl)nc(Cl)c3)cc2)CO1 [Example 175, (S)-N-(4-(2-(2-Amino-4,5-dihydrooxazol-4-yl)ethyl)phenyl)-2,6-dichloroisonicotinamide]
0.004	0.0057	N#Cc1ccc(C(=O)Nc2ccc(CC[C@H]3COC(N)=N3)cc2)cn1 [Example 111, N-{4-[2-((S)-2-Amino-4,5-dihydro-oxazol-4-yl)-ethyl]-phenyl}-6-cyano-nicotinamide]
0.0068	0.0019	Cc1ccc(C(=O)Nc2ccc(CC[C@H]3COC(N)=N3)cc2)cn1 [Example 98, N-{4-[2-((S)-2-Amino-4,5-dihydro-oxazol-4-yl)-ethyl]-phenyl}-6-methyl-nicotinamide]
0.0007	0.002	NC1=N[C@@H](CCc2ccc(NC(=O)c3cnc(Cl)cn3)cc2)CO1 [Example 126, (S)-N-(4-(2-(2-Amino-4,5-dihydrooxazol-4-yl)ethyl)phenyl)-5-chloropyrazine-2-carboxamide]
0.0001	0.0003	NC1=N[C@@H](CCc2ccc(NC(=O)OCc3ccc(Cl)cc3)cc2)CO1 [Example 146, {4-[2-((S)-2-Amino-4,5-dihydro-oxazol-4-yl)-ethyl]-phenyl}-carbamic acid 4-chloro-benzyl ester]
0.0014	0.0014	NC1=N[C@@H](CCc2ccc(NC(=O)c3ccnc(Cl)c3)cc2)CO1 [Example 173, (S)-N-(4-(2-(2-Amino-4,5-dihydrooxazol-4-yl)ethyl)phenyl)-2-chloroisonicotinamide]
0.0005	0.0007	Cc1ccc(C(=O)Nc2ccc(CC[C@H]3COC(N)=N3)cc2)s1 [Example 201, (S)-N-(4-(2-(2-Amino-4,5-dihydrooxazol-4-yl)ethyl)phenyl)-5-methylthiophene-2-carboxamide]
0.0081	0.0018	NC1=N[C@@H](CCc2ccc(NC(=O)c3cccnc3F)cc2)CO1 [Example 99, (S)-N-(4-(2-(2-amino-4,5-dihydrooxazol-4-yl)ethyl)phenyl)-2-fluoronicotinamide]
